According to patent US20120108501A1, “Protease Inhibitors” (priority 2009, published 2012):
Where two headings read alike, the source gives them in different places.

Key:
[1] = Pharmacokinetics of PEGylated protease inhibitor prodrugs in rats; type: in vivo, male Sprague-Dawley rats; set-up: AUCall / AUC: concentration or dose not given beside the values; settings: prodrug in plasma
Description: Pharmacokinetic analysis of protease inhibitors described herein was conducted. To evaluate the pharmacokinetics of PEGylated protease inhibitor conjugates with releasable lipophilic attachments, test compounds were administered to male Sprague-Dawley rats.
At various times following test article administration, serial blood samples were collected from indwelling jugular vein catheters and transferred to micro-tubes containing 7.5 μL of 20% w/v K2EDTA as an anticoagulant. Following processing of the blood samples to plasma (10 minutes at 10000 rpm, Centrifuge Model: Kubota 3500), plasma concentrations of the test article or corresponding PEGylated molecule released from the test article was measured using LC-MS/MS methods. Pharmacokinetic parameters were estimated using noncompartmental methods.
Table 3 presents a summary of pharmacokinetic parameters of PEGylated protease inhibitor prodrugs, wherein Cmax is the maximum (peak) concentration, AUCall represents the area under the concentration-time curve from zero to time of last concentration value, T½ is half life, and MRTlast is the mean residence time to last observable concentration

[2] = Pharmacokinetics of released PEGylated protease inhibitor following P.O. administration of prodrugs in rats; type: in vivo, male Sprague-Dawley rats; set-up: AUCall Mean: concentration or dose not given beside the values; C24 Mean: unit not given here; settings: rats (n = 4-5)
Method in brief: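 Prodrugs given orally to male Sprague-Dawley rats, with serial blood via jugular catheter into K2EDTA. Plasma levels of test article or released PEGylated inhibitor measured by LC-MS/MS. PK parameters from noncompartmental analysis.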

[3] = mPEG3-atazanavir in plasma after PO administration of mPEG3-ATV or of the listed prodrug
[4] = mPEG5-atazanavir in plasma after PO administration of mPEG5-ATV or of the listed prodrug

| Molecule | MRTlast [1] [h] | t½(z) [1] | Cmin(24 hr) ([1]; 24 hr) | AUCall ([1]; mean ± SD) [ng·h/mL] | Cmax ([1]; mean ± SD) [ng/mL] | AUCall Mean [2, 3] [ng·h/mL] | Cmax Mean [2, 3] [ng/mL] | MRT last Mean [2, 3] [h] | Tmax* Median [2, 3] [h] | AUCall Mean [2, 4] [ng·h/mL] | Cmax Mean [2, 4] [ng/mL] | MRT last Mean [2, 4] [h] | Tmax Median [2, 4] [h] | MRT last ([1]; male, Sprague-Dawley, rat, in vivo) [h] | concentration at 24 hr ([1]; male, Sprague-Dawley, rat, in vivo, 24 hr, read-out: Cmin(24 hr)) [ng/mL] | AUC ([1]; male, Sprague-Dawley, rat, in vivo, mean ± SD) [ng·h/mL] | Cmax ([1]; male, Sprague-Dawley, rat, in vivo, mean ± SD, read-out: Cmax) [ng/mL] | half-life ([1]; male, Sprague-Dawley, rat, in vivo, read-out: t½(z) (converted)) [h] | C24 Mean ([2]; concentration at 24 hours, mPEG3-atazanavir in plasma after PO administration of mPEG3-ATV or of the listed prodrug) |
| --- | --- | --- | --- | --- | --- | --- | --- | --- | --- | --- | --- | --- | --- | --- | --- | --- | --- | --- | --- |
| CCOC(C)OC(CN(Cc1ccc(-c2ccccn2)cc1)NC(=O)C(NC(=O)OC)C(C)(C)C)C(Cc1ccccc1)NC(=O)C(NC(=O)OCCOCCOCCOC)C(C)(C)C (mixture of isomers) [1-ethoxyethoxy-mPEG3-Atazanivir, ethoxy ethoxy mPEG3-atazanavir] | 1.62 ± 0.350 | 2.01 ± 0.88 h | 0.370 ± 0.455 ng/mL | 3950 ± 2740 | 1370 ± 549 | 500 | 154 | 2.35 | 0.500 | – | – | – | – | – | – | – | – | – | – |
| COCCOCCOCCOC(=O)NC(C(=O)NC(Cc1ccccc1)C(CN(Cc1ccc(-c2ccccn2)cc1)NC(=O)C(NC(=O)OC)C(C)(C)C)OC(=O)COCCOC(=O)C(N)Cc1ccccc1)C(C)(C)C.Cl (stereo not drawn) [mPEG3-Atazanavir-CME-phenylalanine HCl, mPEG3-atazanavir-CME-phenylalanine] | 2.36 ± 3.57 | – | – | 10.2 ± 8.7 | 7.98 ± 6.06 | 99.5 | 4.48 | 18.5 | 6.00 | – | – | – | – | – | – | – | – | – | – |
| COCCOCCOCCOC(=O)NC(C(=O)NC(Cc1ccccc1)C(CN(Cc1ccc(-c2ccccn2)cc1)NC(=O)C(NC(=O)OC)C(C)(C)C)OC(=O)COCCOC(=O)C(N)CC(C)C)C(C)(C)C.Cl (stereo not drawn) [mPEG3-Atazanavir-CME-Leucine HCl, mPEG3-Atazanavir-CME-Leucine] | 3.74 ± 6.09 | – | – | 13.1 ± 17.2 | 11.5 ± 12.8 | 85.9 | 4.39 | 17.4 | 9.00 | – | – | – | – | – | – | – | – | – | – |
| Phe-Gly-mPEG3-Atazanavir Hydrochloride | 0.602 ± 0.164 | 1.24 ± 0.237 h | – | 6.07 ± 3.82 | 7.38 ± 6.67 | 69.6 | 5.02 | 12.6 | 1.00 | – | – | – | – | – | – | – | – | – | – |
| COCCOCCOCCOC(=O)NC(C(=O)NC(Cc1ccccc1)C(CN(Cc1ccc(-c2ccccn2)cc1)NC(=O)C(NC(=O)OC)C(C)(C)C)OC(=O)CNC(=O)C(N)CC(C)C)C(C)(C)C.Cl (stereo not drawn) [Leu-Gly-mPEG3-Atazanavir, Leu-Gly-mPEG3-Atazanavir Hydrochloride] | 0.597 ± 0.376 | – | – | 0.955 ± 1.02 | 0.833 ± 0.676 | 44.9 | 2.10 | 15.9 | 4.00 | – | – | – | – | – | – | – | – | – | – |
| CCOC(C)OC(CN(Cc1ccc(-c2ccccn2)cc1)NC(=O)C(NC(=O)OC)C(C)(C)C)C(Cc1ccccc1)NC(=O)C(NC(=O)OCCOCCOCCOCCOCCOC)C(C)(C)C (mixture of isomers) [1-ethoxyethoxy-mPEG5-Atazanivir, ethoxy ethoxy mPEG5-atazanavir] | 1.80 ± 0.060 | 2.14 ± 1.85 h | 0.208 ± 0.416 ng/mL | 4960 ± 1730 | 1420 ± 595 | – | – | – | – | 329 | 109 | 1.95 | 1.50 | – | – | – | – | – | – |
| mPEG3-atazanavir-ethoxy-CME-Leu-Leu [mPEG-3-Atazanavir-Ethoxy-CM-Leu-Leu] | 1.01 ± 0.095 | 1.21 NC^ hr | – | 8.27 ± 3.06 | 2.95 ± 1.30 | 148 | 6.42 | 16.5 | 9.00 | – | – | – | – | – | – | – | – | – | – |
| COCCOCCOCCOC(=O)N[C@H](C(=O)N[C@@H](Cc1ccccc1)[C@H](CN(Cc1ccc(-c2ccccn2)cc1)NC(=O)[C@@H](NC(=O)OC)C(C)(C)C)OC(=O)[C@H](Cc1ccccc1)NC(=O)[C@@H](N)CC(C)C)C(C)(C)C.Cl [Leu-Phe-mPEG3-Atazanavir, Leu-Phe-mPEG3-Atazanavir Hydrochloride] | – | – | – | – | – | 448 | 84.9 | 7.56 | 2.00 | – | – | – | – | 3.42 ± 0.916 | 0.154 ± 0.307 | 157 ± 30.3 | 41.9 ± 7.92 | 3.2 ± 0.981 | 2.35 |
| COCCOCCOCCOCCOCCOC(=O)N[C@H](C(=O)N[C@@H](Cc1ccccc1)[C@H](CN(Cc1ccc(-c2ccccn2)cc1)NC(=O)[C@@H](NC(=O)OC)C(C)(C)C)OC(=O)[C@H](Cc1ccccc1)NC(=O)[C@@H](N)CC(C)C)C(C)(C)C.Cl [Leu-Phe-mPEG5-Atazanavir HCl, Leu-Phe-mPEG5-Atazanavir Hydrochloride] | 7.57 ± 7.76 | 0.825 h | 1.16 ± 2.31 ng/mL | 53.8 ± 34.1 | 16.5 ± 14.9 | – | – | – | – | 147 | 25.6 | 9.33 | 1.50 | – | – | – | – | – | – |
| COCCOCCOCCOCCOCCOC(=O)NC(C(=O)NC(Cc1ccccc1)C(CN(Cc1ccc(-c2ccccn2)cc1)NC(=O)C(NC(=O)OC)C(C)(C)C)OC(=O)COCCOC(=O)C(Cc1ccccc1)NC(=O)C(N)Cc1ccccc1)C(C)(C)C.Cl (stereo not drawn) [CME Phe-Phe-mPEG5-Atazanavir HCl, mPEG5-atazanavir-ethoxy-CME-Phe-Phe] | 1.26 | – | BLQ | 1.22 | 2.36 | – | – | – | – | 299 | – | 23.9 | 24.0 | – | – | – | – | – | – |
| COCCOCCOCCOCCOCCOC(=O)NC(C(=O)NC(Cc1ccccc1)C(CN(Cc1ccc(-c2ccccn2)cc1)NC(=O)C(NC(=O)OC)C(C)(C)C)OC(=O)COCCOC(=O)C(N)Cc1ccccc1)C(C)(C)C.Cl (stereo not drawn) [mPEG5-Atazanavir-CME-phenylalanine HCl] | 0.25 | – | – | 0.0554 ± 0.096 | 0.222 ± 0.384 | – | – | – | – | 54.1 | 2.84 | 14.0 | 12.0 | – | – | – | – | – | – |
| CCOC(CC)OC(CN(Cc1ccc(-c2ccccn2)cc1)NC(=O)C(NC(=O)OC)C(C)(C)C)C(Cc1ccccc1)NC(=O)C(NC(=O)OCCOCCOCCOC)C(C)(C)C (mixture of isomers) [1-ethoxypropoxy-mPEG3-Atazanivir, atazanavir-1-ethoxypropoxy-mPEG3] | 2.29 ± 0.280 | 1.39 ± 0.210 h | BLQ | 8480 ± 1700 | 2060 ± 260 | 849 | 153 | 3.83 | 1.00 | – | – | – | – | – | – | – | – | – | – |
| COCCOCCOCCOC(=O)NC(C(=O)NC(Cc1ccccc1)C(CN(Cc1ccc(-c2ccccn2)cc1)NC(=O)C(NC(=O)OC)C(C)(C)C)OC(=O)C(N)CC(C)C)C(C)(C)C.Cl [mono-mPEG3-Atazanavir-L-Leucine, mPEG3-Atazanavir-L-Leucine] | 2.73 ± 0.912 | 3.33 ± 0.958 h | – | 1930 ± 1170 | 470 ± 179 | 347 | 66.0 | 4.14 | 0.750 | – | – | – | – | – | – | – | – | – | – |
| COCCOCCOCCOC(=O)N[C@H](C(=O)N[C@@H](Cc1ccccc1)[C@H](CN(Cc1ccc(-c2ccccn2)cc1)NC(=O)[C@@H](NC(=O)OC)C(C)(C)C)OCOC)C(C)(C)C [mPEG3-Atazanavir-methyl methyl ether, mPEG3-Atazanavir Methyl Methyl Ether] | 3.00 ± 0.350 | 4.03 ± 1.33 h | 6.52 ± 3.57 ng/mL | 7740 ± 935 | 1680 ± 150 | 110 | 23.0 | 3.26 | 1.00 | – | – | – | – | – | – | – | – | – | – |
| COCCOCCOCCOCCOCCOC(=O)NC(C(=O)NC(Cc1ccccc1)C(CN(Cc1ccc(-c2ccccn2)cc1)NC(=O)C(NC(=O)OC)C(C)(C)C)OCOC)C(C)(C)C (stereo not drawn) [mPEG5-Atazanavir-methyl methyl ether, mPEG5-Atazanavir Methyl Methyl Ether] | 3.93 ± 1.41 | 4.54 ± 1.68 h | 6.61 ± 8.39 ng/mL | 3530 ± 1960 | 773 ± 481 | – | – | – | – | 137 | 23.3 | 4.76 | 2.00 | – | – | – | – | – | – |
